Measurements: US10039753B2, “Imidazo[4,5-c]quinoline and imidazo[4,5-c][1,5]naphthyridine derivatives as LRRK2 inhibitors” (Pfizer Inc., priority 2015, dated 2018)
Structures can show the parent of a compound that is named as a salt.

Key:
[1] = target: T1, GST-tagged truncated LRRK2 (Homo sapiens, UniProt Q5S007); assay: LRRK2 Assay, Format 2 (Lantha Screen), WT; type: biochemical; conditions: geometric mean of 2-4 determinations unless otherwise indicated (a: >=5; b: single determination)
T1 construct: GST-tagged truncated LRRK2 from Invitrogen (Cat # PV4874); GST; purchased Invitrogen PV4874

mutant G2019S LRRK2 = mutant G2019S LRRK2 (Homo sapiens, UniProt Q5S007, G2019S); assay: LRRK2 Assay, Format 2 (Lantha Screen), G2019S mutant; type: biochemical; set-up: purchased Invitrogen PV4881; conditions: geometric mean of 2-4 determinations unless otherwise indicated (a: >=5; b: single determination); read-out: LRRK2, Format 2 G2019S IC50
Chain of mutant G2019S LRRK2 (Q5S007 970-2527 G2019S limits assumed): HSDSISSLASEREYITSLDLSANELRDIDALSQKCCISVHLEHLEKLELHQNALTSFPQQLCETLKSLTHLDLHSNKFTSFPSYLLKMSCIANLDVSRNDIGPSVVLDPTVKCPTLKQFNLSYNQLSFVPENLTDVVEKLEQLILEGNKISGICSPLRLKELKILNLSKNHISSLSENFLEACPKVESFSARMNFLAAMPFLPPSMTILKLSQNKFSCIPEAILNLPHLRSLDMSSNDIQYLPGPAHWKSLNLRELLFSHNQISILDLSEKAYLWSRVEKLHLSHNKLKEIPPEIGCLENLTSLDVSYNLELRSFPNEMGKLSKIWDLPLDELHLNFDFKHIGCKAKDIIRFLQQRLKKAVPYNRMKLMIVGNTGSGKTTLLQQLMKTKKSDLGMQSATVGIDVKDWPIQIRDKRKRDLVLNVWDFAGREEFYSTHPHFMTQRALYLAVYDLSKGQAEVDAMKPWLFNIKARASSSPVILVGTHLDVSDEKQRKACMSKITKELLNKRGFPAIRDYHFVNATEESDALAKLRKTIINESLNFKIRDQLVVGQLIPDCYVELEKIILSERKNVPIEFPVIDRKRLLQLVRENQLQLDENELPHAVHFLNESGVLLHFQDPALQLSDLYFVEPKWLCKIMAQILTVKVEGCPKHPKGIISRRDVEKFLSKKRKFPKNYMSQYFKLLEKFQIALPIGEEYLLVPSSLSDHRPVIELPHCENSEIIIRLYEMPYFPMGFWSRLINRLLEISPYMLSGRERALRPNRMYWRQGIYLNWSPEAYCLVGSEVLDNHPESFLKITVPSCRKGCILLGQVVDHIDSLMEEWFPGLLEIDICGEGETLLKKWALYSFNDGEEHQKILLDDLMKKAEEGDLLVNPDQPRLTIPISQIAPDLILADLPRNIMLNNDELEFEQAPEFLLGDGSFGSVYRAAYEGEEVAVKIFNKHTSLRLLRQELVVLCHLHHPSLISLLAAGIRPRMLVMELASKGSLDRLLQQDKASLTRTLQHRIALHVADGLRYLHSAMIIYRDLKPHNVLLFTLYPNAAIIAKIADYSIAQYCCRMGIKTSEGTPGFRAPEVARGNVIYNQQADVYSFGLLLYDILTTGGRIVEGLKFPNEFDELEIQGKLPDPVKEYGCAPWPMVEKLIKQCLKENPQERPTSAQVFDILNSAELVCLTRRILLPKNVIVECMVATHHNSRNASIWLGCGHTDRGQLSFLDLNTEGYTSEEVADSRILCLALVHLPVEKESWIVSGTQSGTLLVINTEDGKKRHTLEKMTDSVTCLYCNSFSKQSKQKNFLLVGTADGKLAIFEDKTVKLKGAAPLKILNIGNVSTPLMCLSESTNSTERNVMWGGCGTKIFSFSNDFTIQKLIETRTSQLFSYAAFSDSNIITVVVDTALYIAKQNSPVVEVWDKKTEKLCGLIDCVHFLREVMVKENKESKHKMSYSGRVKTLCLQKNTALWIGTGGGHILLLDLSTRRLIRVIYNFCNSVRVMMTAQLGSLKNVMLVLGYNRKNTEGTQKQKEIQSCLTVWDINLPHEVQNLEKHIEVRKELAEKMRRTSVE

T1 sequence (Q5S007 970-2527 limits assumed): as the sequence (Q5S007 970-2527 G2019S limits assumed) above, with S1050G counted along it

Row | SMILES | IC50 [1] [nM] | IC50 (mutant G2019S LRRK2) [nM]
1 | Cc1cc(Cc2nc3cnc4ccc(C#N)cc4c3n2C2CCN(C)C2)no1 (centres unmarked) [Example 217, 2-[(5-methyl-1,2-oxazol-3-yl)methyl]-1-(1-methylpyrrolidin-3-yl)-1H-imidazo[4,5-c]quinoline-8-carbonitrile, formate salt] | 5.43 | 11.1
2 | Cc1cc(Cc2nc3cnc4ccc(C#N)cc4c3n2[C@H]2CCN(C)C2)no1 [Example 218, 2-[(5-methyl-1,2-oxazol-3-yl)methyl]-1-[(3S)-1-methylpyrrolidin-3-yl]-1H-imidazo[4,5-c]quinoline-8-carbonitrile, formate salt] | 21.4 | 32.2
3 | CO[C@H]1CC[C@H](n2c(Cc3cc(C)on3)nc3cnc4ccc(C#N)cc4c32)CC1 [Example 219, 1-(trans-4-methoxycyclohexyl)-2-[(5-methyl-1,2-oxazol-3-yl)methyl]-1H-imidazo[4,5-c]quinoline-8-carbonitrile, formate salt] | 246 | 126
4 | C[C@@H]1C[C@H](n2c(C(F)c3csnn3)nc3cnc4ccc(Cl)cc4c32)CCO1 (stereo partly drawn) [Example 220, 8-chloro-2-[fluoro(1,2,3-thiadiazol-4-yl)methyl]-1-[(2R,4R)-2-methyltetrahydro-2H-pyran-4-yl]-1H-imidazo[4,5-c]quinoline, formate salt] | 4.81 | 5.03
5 | Cc1cc(Cc2nc3cnc4ccc(Cl)cc4c3n2[C@@H]2CCO[C@H](CF)C2)no1 [Example 221, 8-chloro-1-[(2S,4R)-2-(fluoromethyl)tetrahydro-2H-pyran-4-yl]-2-[(5-methyl-1,2-oxazol-3-yl)methyl]-1H-imidazo[4,5-c]quinoline] | 3.19 | 2.89
6 | C[C@@H]1C[C@H](n2c(Cc3ccncn3)nc3cnc4ccc(C#N)cc4c32)CCO1 [Example 222, 1-[(2R,4R)-2-methyltetrahydro-2H-pyran-4-yl]-2-(pyrimidin-4-ylmethyl)-1H-imidazo[4,5-c]quinoline-8-carbonitrile] | 9.08 | 8.59
7 | C[C@@H]1C[C@H](n2c(Cc3ccccn3)nc3cnc4ccc(C#N)cc4c32)CCO1 [Example 223, 1-[(2R,4R)-2-methyltetrahydro-2H-pyran-4-yl]-2-(pyridin-2-ylmethyl)-1H-imidazo[4,5-c]quinoline-8-carbonitrile] | 9.69 | 9.45
8 | CC(F)(F)Cn1c(Cc2cscn2)nc2cnc3ccc(C#N)cc3c21 [Example 224, 1-(2,2-difluoropropyl)-2-(1,3-thiazol-4-ylmethyl)-1H-imidazo[4,5-c]quinoline-8-carbonitrile] | 9.15 | 11.1
9 | CC(F)(F)Cn1c(Cn2ccc(C3CC3)n2)nc2cnc3ccc(C#N)cc3c21 [Example 225, 2-[(3-cyclopropyl-1H-pyrazol-1-yl)methyl]-1-(2,2-difluoropropyl)-1H-imidazo[4,5-c]quinoline-8-carbonitrile] | 7.23 | 8.7
10 | Cc1nn2cc(Cc3nc4cnc5ccc(C#N)cc5c4n3CC(C)(F)F)nc2s1 [Example 226, 1-(2,2-difluoropropyl)-2-[(2-methylimidazo[2,1-b][1,3,4]thiadiazol-6-yl)methyl]-1H-imidazo[4,5-c]quinoline-8-carbonitrile] | 4.54 | 5.82
11 | CC(F)(F)Cn1c(Cn2cc(C(F)(F)F)cn2)nc2cnc3ccc(C#N)cc3c21 [Example 227, 1-(2,2-difluoropropyl)-2-{[4-(trifluoromethyl)-1H-pyrazol-1-yl]methyl}-1H-imidazo[4,5-c]quinoline-8-carbonitrile] | 9.06 | 10.8
12 | Cc1cc(Cc2nc3cnc4ccc(C#N)cc4c3n2CC(F)F)no1 [Example 228, 1-(2,2-difluoroethyl)-2-[(5-methyl-1,2-oxazol-3-yl)methyl]-1H-imidazo[4,5-c]quinoline-8-carbonitrile] | 46.7 | 69.4
13 | C[C@@H]1C[C@H](n2c(Cc3cnco3)nc3cnc4ccc(C#N)cc4c32)CCO1 [Example 229, 1-[(2R,4R)-2-methyltetrahydro-2H-pyran-4-yl]-2-(1,3-oxazol-5-ylmethyl)-1H-imidazo[4,5-c]quinoline-8-carbonitrile, formate salt] | 9.71 | 9.37
14 | Cc1nc(Cc2nc3cnc4ccc(C#N)cc4c3n2[C@@H]2CCO[C@H](C)C2)c(C)o1 [Example 230, 2-[(2,5-dimethyl-1,3-oxazol-4-yl)methyl]-1-[(2R,4R)-2-methyltetrahydro-2H-pyran-4-yl]-1H-imidazo[4,5-c]quinoline-8-carbonitrile, formate salt] | 11.6 | 8.48
15 | C[C@@H]1C[C@H](n2c(Cc3cncs3)nc3cnc4ccc(C#N)cc4c32)CCO1 [Example 231, 1-[(2R,4R)-2-methyltetrahydro-2H-pyran-4-yl]-2-(1,3-thiazol-5-ylmethyl)-1H-imidazo[4,5-c]quinoline-8-carbonitrile, formate salt] | 24.9 | 26.6
16 | Cc1ccc(Cc2nc3cnc4ccc(C#N)cc4c3n2[C@@H]2CCO[C@H](C)C2)nc1 [Example 232, 2-[(5-methylpyridin-2-yl)methyl]-1-[(2R,4R)-2-methyltetrahydro-2H-pyran-4-yl]-1H-imidazo[4,5-c]quinoline-8-carbonitrile] | 8.48 | 7.26
17 | Cc1ccn(Cc2nc3cnc4ccc(C#N)cc4c3n2[C@@H]2CCO[C@H](C)C2)n1 [Example 233, 2-[(3-methyl-1H-pyrazol-1-yl)methyl]-1-[(2R,4R)-2-methyltetrahydro-2H-pyran-4-yl]-1H-imidazo[4,5-c]quinoline-8-carbonitrile, formate salt] | 14.3 | 11.9
18 | Cc1nc(Cc2nc3cnc4ccc(C#N)cc4c3n2[C@@H]2CCO[C@H](C)C2)cs1 [Example 234, 1-[(2R,4R)-2-methyltetrahydro-2H-pyran-4-yl]-2-[(2-methyl-1,3-thiazol-4-yl)methyl]-1H-imidazo[4,5-c]quinoline-8-carbonitrile, formate salt] | 10.7 | 9.5
19 | C[C@@H]1C[C@H](n2c(Cc3cn(C)cn3)nc3cnc4ccc(C#N)cc4c32)CCO1 [Example 235, 2-[(1-methyl-1H-imidazol-4-yl)methyl]-1-[(2R,4R)-2-methyltetrahydro-2H-pyran-4-yl]-1H-imidazo[4,5-c]quinoline-8-carbonitrile, formate salt] | 10.6 | 9.43
20 | C[C@@H]1C[C@H](n2c(C(F)(F)c3ccccn3)nc3cnc4ccc(C#N)cc4c32)CCO1 [Example 236, 2-[difluoro(pyridin-2-yl)methyl]-1-[(2R,4R)-2-methyltetrahydro-2H-pyran-4-yl]-1H-imidazo[4,5-c]quinoline-8-carbonitrile, formate salt] | 13 | 11.9
21 | Cc1cc(Cc2nc3cnc4ccc(C#N)cc4c3n2C2CCOC(C)(C)C2)no1 (centres unmarked) [Example 239, 1-(2,2-dimethyltetrahydro-2H-pyran-4-yl)-2-[(5-methyl-1,2-oxazol-3-yl)methyl]-1H-imidazo[4,5-c]quinoline-8-carbonitrile, formate salt] | 9.74 | 10.8
22 | Cc1cc(Cc2nc3cnc4ccc(C#N)cc4c3n2[C@H]2CC[C@H](O)CC2)no1 [Example 240, 1-(trans-4-hydroxycyclohexyl)-2-[(5-methyl-1,2-oxazol-3-yl)methyl]-1H-imidazo[4,5-c]quinoline-8-carbonitrile, formate salt] | 51.8 | 35.7
